Reference: patent US7728106B2, “HIV-1 glycopeptides and derivatives; preparation and applications thereof” (University of Maryland Biotechnology Institute, priority 2005, dated 2010)

Tests used:
furin = molecular target: T1, furin (Homo sapiens, UniProt P09958); assay: Stability toward furin digestion; format: in vitro ADME; conditions: 40 μM peptide, phosphate buffer pH 7.0, 10 units furin, 16 hours, 30° C.; HPLC; FIG. 7A
T1 construct: purchased Sigma
Description: To test this, a quick experiment was performed on the resistance of the synthetic V3 glycopeptides against different proteases. The protease furin was reported to be able to cleave the V3 domain of gp120 at the sequence 302-312 [134-136]. Therefore, the stability of the synthetic glycopeptides toward furin digestion was initially examined. The enzyme was obtained from Sigma and the digestion was monitored by HPLC and ESI-MS analysis.
(§1) FIG. 7A is a graph for digestion with furin, under reaction conditions involving a solution of each peptide (40 μM) in a phosphate buffer (pH 7.0, total 30 μl) incubated with 10 units of furin (Sigma; a unit being defined by the amount of furin that hydrolyzes one pmol substrate in 1 minute under the optimal condition) for 16 hours at 30° C., and the remaining starting peptide was quantified by HPLC and confirmed by ESI-MS determination. FIG. 7B is a graph for digestion with pronase under reaction conditions involving a solution of each peptide (40 μM) in a phosphate buffer (pH 7.4, total 100 μl) incubated with 125 ng of pronase (Sigma) for 40 minutes at 30° C., and the remaining starting peptide was quantified by HPLC and confirmed by ESI-MS determination.
(§2) Next, the stability of the V3 glycopeptides against pronase digestion was tested. The pronase (Actinase E, Sigma) is a mixture of at least three proteolytic activities.

pronase (Actinase E) = assay: Stability toward pronase digestion; format: in vitro ADME; conditions: 40 μM peptide, phosphate buffer pH 7.4, 125 ng pronase, 40 minutes, 30° C.; HPLC; FIG. 7B
Description: as §1, §2

T1 sequence (P09958 108-794, species assumed): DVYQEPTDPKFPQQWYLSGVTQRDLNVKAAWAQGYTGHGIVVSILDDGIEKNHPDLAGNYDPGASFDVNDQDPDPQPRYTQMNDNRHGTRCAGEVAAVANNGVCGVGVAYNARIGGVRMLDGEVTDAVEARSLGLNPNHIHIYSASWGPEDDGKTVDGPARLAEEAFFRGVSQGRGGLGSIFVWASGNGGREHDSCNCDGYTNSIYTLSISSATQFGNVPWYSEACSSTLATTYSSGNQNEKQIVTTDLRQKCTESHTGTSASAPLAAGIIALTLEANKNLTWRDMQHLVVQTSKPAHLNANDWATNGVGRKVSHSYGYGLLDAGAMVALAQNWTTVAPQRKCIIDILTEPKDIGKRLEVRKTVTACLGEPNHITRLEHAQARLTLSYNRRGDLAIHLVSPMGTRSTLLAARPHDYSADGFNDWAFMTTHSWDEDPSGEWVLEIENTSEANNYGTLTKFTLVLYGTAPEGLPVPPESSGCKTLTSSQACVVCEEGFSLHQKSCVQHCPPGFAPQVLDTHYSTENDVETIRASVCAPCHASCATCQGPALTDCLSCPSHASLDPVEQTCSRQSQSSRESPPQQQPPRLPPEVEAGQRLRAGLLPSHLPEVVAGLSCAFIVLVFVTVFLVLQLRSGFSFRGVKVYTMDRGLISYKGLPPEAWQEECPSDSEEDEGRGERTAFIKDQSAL

Compound: CC[C@H](C)[C@@H]1NC(=O)[C@H](CCCCN)NC(=O)CNC(=O)[C@H]([C@@H](C)CC)NC(=O)[C@H]([C@@H](C)O)NC(=O)[C@H](C(C)C)NC(=O)[C@H](Cc2ccccc2)NC(=O)[C@H](C)NC(=O)[C@H](CCCNC(=N)N)NC(=O)CNC(=O)[C@@H]2CCCN2C(=O)CNC(=O)[C@H](CCCNC(=N)N)NC(=O)[C@H](CCC(N)=O)NC(=O)[C@H]([C@@H](C)CC)NC(=O)[C@H](CCCNC(=N)N)NC(=O)[C@H]([C@@H](C)CC)NC(=O)[C@H](CCCNC(=N)N)NC(=O)[C@H](CCCCN)NC(=O)[C@H](CCCNC(=N)N)NC(=O)[C@H]([C@@H](C)O)NC(=O)[C@H](CC(N)=O)NC(=O)[C@H](CC(N)=O)NC(=O)[C@H](CC(N)=O)NC(=O)[C@@H]2CCCN2C(=O)[C@H](CCCNC(=N)N)NC(=O)[C@H]([C@@H](C)O)NC(=O)[C@@H](NC(=O)[C@H](CC(=O)N[C@@H]2O[C@H](CO)[C@@H](O[C@@H]3O[C@H](CO)[C@@H](O[C@@H]4O[C@H](CO[C@H]5O[C@H](CO)[C@@H](O)[C@H](O)[C@@H]5O)[C@@H](O)[C@H](O[C@H]5O[C@H](CO)[C@@H](O)[C@H](O)[C@@H]5O)[C@@H]4O)[C@H](O)[C@H]3NC(C)=O)[C@H](O)[C@H]2NC(C)=O)NC(=O)[C@@H](NC(=O)[C@H](CCC(=O)O)NC(=O)[C@@H](NC(=O)[C@H](CO)NC(=O)[C@@H](N)[C@@H](C)O)C(C)C)[C@@H](C)CC)CSSC[C@@H](C(=O)N[C@@H](CC(=O)N[C@@H]2O[C@H](CO)[C@@H](O[C@@H]3O[C@H](CO)[C@@H](O[C@@H]4O[C@H](CO[C@H]5O[C@H](CO)[C@@H](O)[C@H](O)[C@@H]5O)[C@@H](O)[C@H](O[C@H]5O[C@H](CO)[C@@H](O)[C@H](O)[C@@H]5O)[C@@H]4O)[C@H](O)[C@H]3NC(C)=O)[C@H](O)[C@H]2NC(C)=O)C(=O)N[C@H](C(=O)N[C@@H](CO)C(=O)N[C@@H](CCCNC(=N)N)C(=O)N[C@@H](C)C(N)=O)[C@@H](C)CC)NC(=O)[C@H](Cc2c[nH]cn2)NC(=O)[C@H](C)NC(=O)[C@H](CCC(N)=O)NC(=O)[C@H](CCCNC(=N)N)NC(=O)[C@H](CCSC)NC(=O)[C@H](CC(N)=O)NC(=O)CNC1=O [HB-V3-(G2M3)2]
- stability toward furin digestion (remaining starting peptide) (furin): most stable
- stability toward pronase digestion (remaining starting peptide) (pronase (Actinase E)): most stable
